# PubChem BioAssay AID463206 (Broad Institute, 2010)
# Active and inactive are the calls of the source.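 The calls were made as follows: active = caspase luminescence falls with dose and the half-maximal concentration AC50 from the fitted curve is at or below a set limit; inconclusive = flat fit at 30 to 70% signal loss, or invalid fit; inactive = AC50 above the limit, or signal rises instead.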
# Test system: INS-1E cytokine-induced caspase-3/7, Caspase-Glo luminescence, 48 h
# Assay: inhibitors of cytokine-induced caspase-3/7 activity, dose response, orthogonal assay for beta-cell apoptosis protection project, INS-1E rat cells, luminescence (AID 463206)
row,Compound,AC50
1,Oc1cccc2ccc(Nc3ccccn3)nc12,> 26 µM (inactive)
2,COC(=O)C1CCN(C(=O)c2cc(-c3ccc(Cl)s3)nc3ccccc23)CC1,> 26 µM (inactive)
3,CC[N+]1=C(C)C(C)(C)c2cc(C)ccc21,> 26 µM (inactive)
4,O=C(Nc1ccc(Cl)cc1)/C(=C/c1cccc(O)c1)c1nc2ccccc2s1,> 26 µM (inactive)
5,CCCC(=O)NC(c1ccc(C)cc1)c1ccc2cccnc2c1O (centres undefined),> 26 µM (inactive)
6,Cc1ccc(S(=O)(=O)NCc2ccncc2)c(C)c1C,> 26 µM (inactive)
7,CC1CCN(c2ccc(NC(=O)c3ccc([N+](=O)[O-])o3)cc2)CC1,> 26 µM (inactive)
8,CN(C)c1nc(N/N=C/c2ccccc2O)nc(Nc2ccc(F)cc2)n1,> 26 µM (inactive)
9,c1ccc2c3c([nH]c2c1)C1(CCNCC1)NCC3,> 26 µM (inactive)
10,Cc1oc2c(c1C(=O)c1ccccc1)C(=O)C(=O)c1ccccc1-2,> 26 µM (inactive)
11,Cc1cc(C)c(OCC(O)CNC(C)(C)C)c(C)c1 (centres undefined),> 26 µM (inactive)
12,Cc1cccc(NC(=O)c2ccc([N+](=O)[O-])s2)c1C,> 26 µM (inactive)
13,Cc1cc(/C=C2/SC(=S)N(c3ccc([N+](=O)[O-])cc3)C2=O)c(C)n1-c1cccnc1,> 26 µM (inactive)
14,COc1cccc(/C=N/NC(=O)c2c(-c3ccccc3)noc2C)c1O,> 26 µM (inactive)
15,COC(=O)C[C@]1(C(=O)OC)CN(C#N)N(c2ccc(Cl)cc2)C12c1ccccc1-c1ccccc12,> 26 µM (inactive)
16,O=C(Nc1ccc(Br)c(C(F)(F)F)c1)c1ccc(C(F)(F)F)cc1,> 26 µM (inactive)
17,COc1cccc(N=Nc2ccc3cccnc3c2O)c1,> 26 µM (inactive)
18,Cc1ccc(-c2cc3cccc[n+]3cc2-c2ccc(C)cc2)cc1,> 26 µM (inactive)
19,C[C@H]1CCC/C=C/C2C[C@H](O)CC2[C@H](O)/C=C/C(=O)O1 (some centres undefined),> 26 µM (inactive)
20,COc1ccc(N/N=C/c2c(C(=O)O)ccc3ccccc23)cc1,> 26 µM (inactive)

row,Compound,AC50
1,COc1cc(/C=C2\CC(C(C)(C)C)C/C(=C\c3cc(OC)c(OC)c(OC)c3)C2=O)cc(OC)c1OC (centres undefined),> 26 µM (inactive)
2,Cc1cc([N+](=O)[O-])c2ccccc2[n+]1[O-],> 26 µM (inactive)
3,N/C(=N\OC(=O)c1ccc(Cl)cc1Cl)c1ccccn1,> 26 µM (inactive)
4,COc1ccc(C2NCCc3c2[nH]c2ccccc32)cc1COc1ccc(F)cc1 (centres undefined),> 26 µM (inactive)
5,CN(Cc1cccnc1)C(=O)c1cc(COc2ccc3ncccc3c2)on1,> 26 µM (inactive)
6,Cc1ccc(-c2nn(-c3ccccc3)cc2/C=N/NC(=O)c2ccc(Br)o2)cc1,> 26 µM (inactive)
7,c1ccc2c(c1)ncn2CCCOc1ccc2c(c1)CCC2,> 26 µM (inactive)
8,CCC(=O)NC(c1cccs1)c1cc(Cl)c2cccnc2c1O (centres undefined),> 26 µM (inactive)
9,FC(F)(F)c1cnc(NNC(=S)Nc2ccccc2Cl)c(Cl)c1,> 26 µM (inactive)
10,CCOc1cccc(/C=N/NC(=O)c2ccc3c(c2)OCCO3)c1O,> 26 µM (inactive)
11,C=C[C@H](Cc1ccccc1)N(Cc1ccccc1)S(=O)(=O)N(Cc1ccccc1)[C@H](C=C)Cc1ccccc1,> 26 µM (inactive)
12,Oc1c(C(Nc2ccccn2)c2cccnc2)cc(Cl)c2cccnc12 (centres undefined),> 26 µM (inactive)
13,COc1ccc(/C=N/Nc2cc(C)nc(-n3nc(C)cc3C)n2)c(OC)c1,> 26 µM (inactive)
14,Nc1ccccc1N=Cc1c(O)n(CCC2=CCCCC2)c(=O)[nH]c1=O,> 26 µM (inactive)
15,Cc1cccc(C)c1NC(=O)CNC(=O)c1c(C)nn(C)c1Cl,> 26 µM (inactive)
16,O=c1c2c(nc3c(-c4ccc(Cl)cc4)c[nH]n13)CCCC2,> 26 µM (inactive)
17,CN(C)S(=O)(=O)c1cccc(NC(=S)N/N=C/c2cc(Br)ccc2O)c1,> 26 µM (inactive)
18,CC(=O)c1cn(CCOc2cc(C)ccc2C)c2ccccc12,> 26 µM (inactive)
19,CCCCCCc1cc2cc(C(=O)Nc3cccc(OC)c3)c(=O)oc2cc1O,> 26 µM (inactive)
